ChEMBL document CHEMBL1201862, “PubChem BioAssay data set” (2004)
Calls of active or inactive are those of the source.

How the values were obtained:
[1] = test system: Danio rerio; assay: In Vivo Angiogenesis Dose-Response Confirmation. [Related pubchem assays: 732 (Assay preceding this confirmatory assay.)]; type: functional, organism-based
[2] = Luminescence Cell-Based Dose Retest to Confirm Inhibitors of Cancer Stem Cells. [Related pubchem assays (depositor defined):AID2717, AID2721]; type: functional; details: Homo sapiens
[3] = biological target: Eukaryotic translation initiation factor 4E (Mus musculus, UniProt P63073); assay: eIF4E–eIF4G protein interaction inhibitors, dose response, biochemical, TR-FRET (AID 855); type: functional;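 also: potency for disrupting eIF4E binding to eIF4GI seen as loss of FRET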
[4] = biological target: RNA-editing ligase 1, mitochondrial (Trypanosoma brucei brucei, UniProt P86926); assay: TbREL1 ligase inhibitors, dose response, biochemical, fluorescence, Trypanosoma brucei (AID 1117295); type: functional
[5] = test system: Streptococcus sp. 'group A'; assay: growth inhibition of control SK(-) GAS strain, dose response, counter-screen for streptokinase expression inhibitor project, luminescence, kanamycin, BacTiterGlo, confirmation (AID 1900); type: functional, organism-based
[6] = biological target: T1, Voltage-gated N-type calcium channel alpha-1B subunit/Amyloid beta A4 precursor protein-binding family A member 1 (Homo sapiens, UniProt Q00975+Q02410); type: protein assay
[7] = biological target: T2, Streptokinase A (Streptococcus pyogenes serotype M1, UniProt P10520); assay: S. pyogenes streptokinase expression inhibitors, potency, dose response, plasminogen activation absorbance, OD405 (AID 1914); type: functional, Streptococcus pyogenes M1 GAS;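 also: secreted streptokinase activity via plasminogen activation per viability signal from cell pellet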
T2 sequence (P10520 whole entry): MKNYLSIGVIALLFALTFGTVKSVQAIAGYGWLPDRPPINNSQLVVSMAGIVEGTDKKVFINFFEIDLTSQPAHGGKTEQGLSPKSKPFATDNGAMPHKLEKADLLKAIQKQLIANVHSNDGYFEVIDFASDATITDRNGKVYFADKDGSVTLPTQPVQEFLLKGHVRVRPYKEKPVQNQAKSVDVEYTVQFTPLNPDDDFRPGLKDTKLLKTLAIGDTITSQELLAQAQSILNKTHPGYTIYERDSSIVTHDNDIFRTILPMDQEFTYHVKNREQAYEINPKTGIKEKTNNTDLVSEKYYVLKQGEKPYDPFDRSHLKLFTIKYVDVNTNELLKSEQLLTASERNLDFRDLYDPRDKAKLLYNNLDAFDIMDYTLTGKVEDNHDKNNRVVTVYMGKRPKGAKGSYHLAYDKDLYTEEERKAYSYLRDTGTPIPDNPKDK

[8] = biological target: T1, Voltage-gated N-type calcium channel alpha-1B subunit/Amyloid beta A4 precursor protein-binding family A member 1; type: protein assay; remark: listed apart in the source
[9] = biological target: Peroxisome proliferator-activated receptor gamma/Nuclear receptor corepressor 2 (Homo sapiens, UniProt P37231+Q9Y618); assay: Counterscreen for NR2E3 inverse agonists: TR-FRET-based biochemical high throughput dose response assay to identify inverse agonists of the interaction between peroxisome proliferator-activated receptor gamma (PPARg) and nuclear receptor co-repressor 2 (NCOR2).; type: functional
[10] = biological target: T3, Photoreceptor-specific nuclear receptor (Homo sapiens, UniProt Q9Y5X4); assay: NR2E3 inverse agonists, dose response, biochemical, TR-FRET (AID 463256); type: functional
[11] = test system: Streptococcus; assay: Group A Streptococcus viability loss, dose response, counter-screen for streptokinase expression inhibitor project, luminescence, BacTiterGlo (AID 1915); type: functional, organism-based;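 also: potency for reduction of bacterial viability or growth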
[12] = biological target: T3, Photoreceptor-specific nuclear receptor; type: functional, cell-based
[13] = biological target: Mitogen-activated protein kinase 10 (Homo sapiens, UniProt P53779); assay: Dose response biochemical screening assay for inhibitors of c-Jun N-Terminal Kinase 3 (JNK3). [Related pubchem assays: 746 ]
[14] = biological target: Major prion protein (Homo sapiens, UniProt P04156); type: functional, cell-based
[15] = cells
[16] = biological target: T4, Small ubiquitin-related modifier 1 (Homo sapiens, UniProt P63165); assay: inhibitors of SUMO1 peptide binding, dose response, biochemical, fluorescence polarization, uHTS hits (AID 624382); type: functional; details: read-out: IC50_Mean
[17] = biological target: T4, Small ubiquitin-related modifier 1; assay: inhibitors of SUMO1 partner interactions, dose response, biochemical, FRET (AID 624383); type: functional; details: read-out: IC50_Mean
[18] = inhibitors of Vif binding to APOBEC3G peptide, primary screen, biochemical, TR-FRET, GST-Vif 1-94, biotin-A3G peptide, dose response retest (AID 1117319); type: functional;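 also: TR-FRET signal of purified GST-Vif binding a biotinylated A3G peptide; inhibitors lower the FRET signal by blocking Vif and A3G binding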
[19] = NIH-3T3 fibroblast cytotoxicity, dose response, cytotoxicity control, cell-based, fluorescence, Alamar Blue, secondary assay (AID 2327); type: functional;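 also: NIH-3T3 mouse fibroblasts cultured with fluconazole at 8 µg/mL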
[20] = inhibitors of firefly luciferase expression or activity, dose response, H4 neuroglioma cells, luminescence (AID 1990); type: functional, cell-based
[21] = Luminescence Cell-Based Dose Response HTS to Identify Inhibitors of 5'UTR Stem-Loop Driven Prion Protein mRNA Translation in H4 Neuroglioblastoma Cells. [Related pubchem assays: 1827 (Project Summary), 1813 (Primary HTS)]; type: functional
[22] = inhibitors of SNCA 5'UTR-driven reporter translation, confirmation, H4 neuroglioma cells, luminescence (AID 1988); type: functional, cell-based
[23] = C. albicans growth with fluconazole, confirmation, fluorescence, retest (AID 2467); type: functional, cell-based
[24] = microbe, parasite or virus in culture; type: functional; details: Mycobacterium tuberculosis
[25] = biological target: Voltage-gated inwardly rectifying potassium channel KCNH2 (Homo sapiens, UniProt Q12809); assay: hERG protection from proarrhythmic block, potency, dose response, cell-based, thallium flux (AID 2121); type: ADME
[26] = biological target: Beta-galactosidase (Escherichia coli, UniProt Q8VNN2); assay: beta-galactosidase enzyme inhibitors and activators, dose response, artefact control for CCR6 antagonist project, biochemical, E. coli enzyme, set 3 (AID 504712); type: functional
[27] = test system: Vero; assay: Vero cell cytotoxicity, cytotoxicity control for flavivirus capping enzyme inhibitors (AID 588742); type: functional; details: Chlorocebus sabaeus
[28] = biological target: 5-hydroxytryptamine receptor 1A (Homo sapiens, UniProt P08908); type: functional
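For AC50 in this document: cells exposed to compound for roughly 70 hours or longer before luminescence read.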

For `Cc1cccc2c1NC(=O)/C2=C1\Nc2ccccc2\C1=N/OCCN1CCNCC1`, the IC50 [1] was 6.32 µM (active).

For `COc1ccc(CN2C(=O)c3cccnc3C2Nc2cc(Cl)ccc2OC)cc1` (centres undefined), the AC50 [2] was > 195 µM (inactive), the IC50 [3] was 14.4 µM (active) and the IC50 [4] was 16.1 µM (inactive).

For `Cc1ccnc(NC(=S)N2CCN(c3cccc(C(F)(F)F)c3)CC2)c1`, the EC50 [5] was 1.66 µM (active), the IC50 [6] was 11.6 µM (active) and the EC50 [7] was > 150 µM (not active). The IC50 [8] was > 50 µM (inactive), the IC50 [9] was > 39.9 µM (not active) and the IC50 [10] was > 39.9 µM (not active). The EC50 [11] was 22.4 µM (active) and the IC50 [12] was 1.76 µM (active).

With `Cc1nn(C(C)C(=O)O)c(=O)c2c1sc1ccccc12` (centres undefined) the IC50 [13] was > 93.1 µM (not active), the IC50 [14] was 8.45 µM (active) and the IC50 [15] was > 138 µM (inactive).

With `CCCN1Cc2cccc(C(=O)NCc3ccccc3)c2C1=O` the IC50 [13] was 57.8 µM (not active).

In the case of `Cc1nc2ccc3nc(NC(=O)c4ccco4)sc3c2s1`, the IC50 [9] is reported as 4.28 µM (active), the IC50 [10] is reported as 4.28 µM (active) and the IC50 [16] is reported as > 66.6 µM (inactive). For the same molecule, the IC50 [17] was 12.1 µM (active).

With `CCC1S/C(=C(\C#N)C(=O)NCc2ccco2)N(c2ccc(F)cc2)C1=O` (centres undefined) the IC50 [18] was > 100 µM (active).

With `CCc1ccc(/C=C/C(=O)c2cc(Br)ccc(=O)c2O)cc1` the EC50 [19] was 15.5 µM (inconclusive), the EC50 [20] was > 120 µM (not active) and the EC50 [5] was 1.8 µM (active). For the same molecule, the EC50 [21] was 15 µM (active), the EC50 [22] was 15.5 µM (active) and the EC50 [23] was 1.52 µM (active). The CC50 [24] was 11.5 µM (active), the EC50 [25] was 1.15 µM (active) and the EC50 [11] was 2.6 µM (active). For the same molecule, the IC50 [26] was > 66.6 µM (inactive) and the CC50 [27] was 13.5 µM (active).

With `Cc1noc(C)c1COc1ccc(C(=O)OC(C)C(=O)Nc2ccc(N3CCOCC3)cc2)cc1` (centres undefined) the EC50 [28] was > 50 µM (not active).

In the case of `Cc1ccc2c(c1)/C(=C1/Nc3ccc(Br)cc3/C1=N\O)C(=O)N2`, the IC50 [1] is reported as 2.5 µM (active).
